The target of assay [1] is T1, Cbl-b (Homo sapiens, UniProt Q13191). Put plainly: Cbl-b inhibition assay (Cbl-b activity assay, FRET, Biological Example 1; 100 mM NaCl, 60 nM Src kinase). As to conditions: upper bound stated in text lists; read-out: IC50 values in the Cbl-b inhibition assay of Biological Example 1. Format: biochemical. The method in brief: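 Here, the E2 UbcH5B, irreversibly linked to Bodipy-fluorescein ubiquitin, binds Cbl-b once Src kinase phosphorylates it; Cbl-b carries an N-terminal biotinylated Avi-tag captured by streptavidin-terbium. An absent FRET signal indicates inhibition.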

The test system of assay [2] is T-cell. Nature of the assay: IL-2 secretion from T-cells co-stimulated with anti-CD3 and anti-CD28 antibody (Biological Example 2). Format: cell-based, human. As to conditions: Homo sapiens, T-cell, primary human total T-cells, baseline = anti-CD3/anti-CD28 stimulated cells without inhibitor, read-out: IL-2 secretion, Anti-CD3/Anti-CD28 stimulation, fold change over baseline; for fold induction at 0.3 µM: 0.3 μM compound; for fold induction at 1 µM: 1 μM compound. The method in brief:
(§1)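 Values are fold-change over baseline: readings (IL-2 release, CD25 staining) from inhibitor-treated T-cells divided against untreated cells […]. No detailed procedure stated.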

In assay [3] the test system is T-cell. Nature of the assay: IL-2 secretion from T-cells stimulated with anti-CD3 antibody alone (Biological Example 2). As to conditions: 1 μM compound, primary human total T-cells, read-out: IL-2 secretion, Anti-CD3 stimulation, fold change over baseline. Format: cell-based.
Assay [4] concerns the target T1, Cbl-b. Put plainly: Cbl-b activity assay (Cbl-b inhibition assay), TR-FRET of Cbl-b interaction with UbcH5B-Ub. The conditions noted are these: assay buffer with 100 mM NaCl, 60 nM Src kinase; read-out: Cbl-b activity IC50. Format: biochemical. The method in brief:
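Compound-treated Cbl-b was incubated 1.5 h with Src kinase (60 nM final; 30 nM for asterisked values, which also used 50 mM instead of 100 mM NaCl), 1 mM ATP and 5 mM MgCl2. Binding to fluorescent Ub-loaded UbcH5B (C85K mutant) was then read by TR-FRET after 1 h more.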
For orientation: In TR-FRET formats the signal depends on donor and acceptor labels being close together.

The subject of assay [5] is T-cell. Nature of the assay: CD25 cell surface staining on T-cells co-stimulated with anti-CD3 and anti-CD28 antibody (Biological Example 2). The conditions noted are these: Homo sapiens, T-cell, primary human total T-cells, baseline = anti-CD3/anti-CD28 stimulated cells without inhibitor, read-out: CD25 staining, Anti-CD3/Anti-CD28 stimulation, fold change over baseline; for fold induction at 0.3 µM: 0.3 μM compound; for fold induction at 1 µM: 1 μM compound. Format: cell-based, human. The essentials:
as §1

For assay [6], the system named is T-cell. Put plainly: CD25 cell surface staining on T-cells stimulated with anti-CD3 antibody alone (Biological Example 2). As to conditions: 1 μM compound, primary human total T-cells, baseline = anti-CD3/anti-CD28 stimulated cells without inhibitor, read-out: CD25 staining, Anti-CD3 stimulation, fold change over baseline. Format: cell-based.

For 13 molecules, IC50 and fold induction results are on record in patent publication US20220324835A1 (Nurix Therapeutics, Inc., priority 2018, published 2022).

T1 sequence (Q13191 36-427): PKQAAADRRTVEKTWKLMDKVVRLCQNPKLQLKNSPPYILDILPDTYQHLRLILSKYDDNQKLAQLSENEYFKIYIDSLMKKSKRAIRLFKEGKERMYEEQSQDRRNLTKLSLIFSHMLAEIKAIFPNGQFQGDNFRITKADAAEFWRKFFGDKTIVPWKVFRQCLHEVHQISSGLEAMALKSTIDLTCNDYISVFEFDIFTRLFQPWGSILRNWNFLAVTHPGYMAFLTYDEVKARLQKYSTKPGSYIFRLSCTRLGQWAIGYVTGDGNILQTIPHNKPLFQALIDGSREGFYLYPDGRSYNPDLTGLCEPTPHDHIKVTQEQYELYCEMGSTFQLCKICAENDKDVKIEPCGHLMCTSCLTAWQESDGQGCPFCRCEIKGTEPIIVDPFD

Take `Cn1cnnc1CC1(c2cccc(NC(=O)c3csc(C(F)(F)F)n3)c2)COC1` [Compound 492, N-(3-{3-[(4-methyl-1,2,4-triazol-3-yl)methyl]oxetan-3-yl}phenyl)-2-(trifluoromethyl)-1,3-thiazole-4-carboxamide]: the IC50 (in general, the concentration that inhibits the measured activity by half) at Cbl-b [1] is ≤ 100 nM; at Cbl-b [4], < 100 nM. For the same molecule, the figures for the fold induction at 0.3 µM with T-cell [2] and in the assay on T-cell [5] were 1.01 to 2.5 and 1.01 to 1.3, respectively. Besides, the fold induction at 1 µM with T-cell [2] fell in the range of 1.01 to 2.5; in the assay on T-cell [3], 0.051 to 0.1; in the assay with T-cell [5], 1.01 to 1.3; with T-cell [6] it was 0.601 to 0.8.
As to `Cn1cnnc1CC1(c2cccc(NC(=O)c3nc(C4CC4)cs3)c2)COC1` [Compound 493, 4-cyclopropyl-N-(3-{3-[(4-methyl-1,2,4-triazol-3-yl)methyl]oxetan-3-yl}phenyl)-1,3-thiazole-2-carboxamide], the IC50 on Cbl-b [1] is ≤ 1000 nM; on Cbl-b [4], 301 to 1000 nM. The fold induction at 0.3 µM with T-cell [2] is < 1; in the assay on T-cell [5] it was 1.01 to 1.3. Moreover, the fold induction at 1 µM in the assay with T-cell [2] was 1.01 to 2.5; with T-cell [3] it was < 0.05; with T-cell [5], 1.01 to 1.3; with T-cell [6], < 0.6.
Regarding `Cn1cnnc1CC1(c2cccc(NC(=O)c3csc(C4CC4)n3)c2)COC1` [Compound 494, 2-cyclopropyl-N-(3-{3-[(4-methyl-1,2,4-triazol-3-yl)methyl]oxetan-3-yl}phenyl)-1,3-thiazole-4-carboxamide], the 50% inhibitory concentration (IC50) on Cbl-b [1] was ≤ 300 nM; at Cbl-b [4], 100 to 300 nM. For the same molecule, the fold induction at 0.3 µM with T-cell [2] is 1.01 to 2.5; in the assay on T-cell [5], 1.01 to 1.3. Besides, the fold induction at 1 µM in the assay on T-cell [2] lay within 1.01 to 2.5; in the assay with T-cell [3], 0.051 to 0.1; in the assay on T-cell [5] it was 1.01 to 1.3; in the assay with T-cell [6], 0.601 to 0.8.
With `Cn1cnnc1CC1(c2cccc(NC(=O)c3cc(CN4CCC5CC54)cc(C4CC4)n3)c2)COC1` (centres unmarked) [Compound 497, 4-{2-azabicyclo[3.1.0]hexan-2-ylmethyl}-6-cyclopropyl-N-(3-{3-[(4-methyl-1,2,4-triazol-3-yl)methyl]oxetan-3-yl}phenyl)pyridine-2-carboxamide], the half-inhibitory concentration (IC50) on Cbl-b [1] was ≤ 100 nM; at Cbl-b [4], < 100 nM. In addition, the results for the fold induction at 0.3 µM in the assay on T-cell [2] and in the assay with T-cell [5] were > 7.5 and 1.31 to 1.5, respectively. In addition, the fold induction at 1 µM with T-cell [2] is > 7.5; with T-cell [3], > 0.201; in the assay with T-cell [5], 1.31 to 1.5; in the assay on T-cell [6], > 1.
For the molecule `Cn1cnnc1CC1(c2cccc(NC(=O)c3cc(CN4C[C@H]5C[C@H]5C4)cc(C4CC4)n3)c2)COC1` [Compound 498, 4-{3-azabicyclo[3.1.0]hexan-3-ylmethyl}-6-cyclopropyl-N-(3-{3-[(4-methyl-1,2,4-triazol-3-yl)methyl]oxetan-3-yl}phenyl)pyridine-2-carboxamide], the values for the IC50 at Cbl-b [1] and at Cbl-b [4] were ≤ 100 nM and < 100 nM, respectively. The fold induction at 0.3 µM in the assay on T-cell [2] is > 7.5; with T-cell [5], 1.31 to 1.5. The fold induction at 1 µM is > 7.5 in the assay on T-cell [2], > 0.201 in the assay on T-cell [3], 1.31 to 1.5 in the assay with T-cell [5] and > 1 with T-cell [6].
As to `Cn1cnnc1CC1(c2cccc(NC(=O)c3cc(CN4C[C@@H]5[C@H](C4)C5(F)F)cc(C4CC4)n3)c2)COC1` [Compound 499], the IC50 on Cbl-b [1] is ≤ 100 nM; at Cbl-b [4] it was < 100 nM. The fold induction at 0.3 µM is > 7.5 in the assay with T-cell [2] and 1.31 to 1.5 in the assay with T-cell [5]. Further, the fold induction at 1 µM is > 7.5 in the assay with T-cell [2], > 0.201 with T-cell [3], 1.31 to 1.5 with T-cell [5] and > 1 in the assay with T-cell [6].
With `Cc1conc1CC1(c2cccc(NC(=O)c3cc(CN4CCC5(CC5)C4)cc(C4CC4)n3)c2)COC1` [Compound 500, 4-{5-azaspiro[2.4]heptan-5-ylmethyl}-6-cyclopropyl-N-(3-{3-[(4-methyl-1,2-oxazol-3-yl)methyl]oxetan-3-yl}phenyl)pyridine-2-carboxamide], the IC50 at Cbl-b [1] was ≤ 100 nM; on Cbl-b [4], < 100 nM. The fold induction at 0.3 µM is > 7.5 with T-cell [2] and 1.31 to 1.5 in the assay on T-cell [5]. The fold induction at 1 µM is > 7.5 with T-cell [2], > 0.201 in the assay with T-cell [3], 1.31 to 1.5 in the assay on T-cell [5] and > 1 with T-cell [6].
Regarding `Cn1cnnc1CC1(c2cccc(NC(=O)c3cc(OC(F)F)cc(C4CC4)n3)c2)COC1` [Compound 502, 6-cyclopropyl-4-(difluoromethoxy)-N-(3-{3-[(4-methyl-1,2,4-triazol-3-yl)methyl]oxetan-3-yl}phenyl)pyridine-2-carboxamide], the IC50 was ≤ 100 nM on Cbl-b [1] and < 100 nM on Cbl-b [4]. Moreover, the fold induction at 0.3 µM with T-cell [2] lay in the range of 5 to 7.5; with T-cell [5], 1.01 to 1.3. In addition, the fold induction at 1 µM with T-cell [2] is > 7.5; with T-cell [3], > 0.201; in the assay on T-cell [5], 1.01 to 1.3; in the assay on T-cell [6] it was > 1.
As to `CN(C)Cc1cc(C(=O)Nc2cccc(C3(Cc4nncn4C)COC3)c2)nc(C2CC2)n1` [Compound 503, 2-cyclopropyl-6-[(dimethylamino)methyl]-N-(3-{3-[(4-methyl-1,2,4-triazol-3-yl)methyl]oxetan-3-yl}phenyl)pyrimidine-4-carboxamide], the IC50 on Cbl-b [1] is ≤ 100 nM; at Cbl-b [4], < 100 nM. Moreover, the fold induction at 0.3 µM is 2.51 to 5 with T-cell [2] and 1.31 to 1.5 with T-cell [5]. Besides, the fold induction at 1 µM in the assay on T-cell [2] was > 7.5; in the assay on T-cell [3], 0.101 to 0.15; in the assay on T-cell [5], 1.31 to 1.5; in the assay on T-cell [6], > 1.
Turning to `Cn1cnnc1CC1(c2cccc(NC(=O)c3cc(CN4CCC4)nc(C4CC4)n3)c2)COC1` [Compound 504, 6-(azetidin-1-ylmethyl)-2-cyclopropyl-N-(3-{3-[(4-methyl-1,2,4-triazol-3-yl)methyl]oxetan-3-yl}phenyl)pyrimidine-4-carboxamide], the IC50 is ≤ 100 nM at Cbl-b [1] and < 100 nM at Cbl-b [4]. Further, the values for the fold induction at 0.3 µM in the assay on T-cell [2] and with T-cell [5] were 2.51 to 5 and 1.01 to 1.3, respectively. Besides, the fold induction at 1 µM in the assay with T-cell [2] fell in the range of 5 to 7.5; in the assay on T-cell [3] it was 0.051 to 0.1; with T-cell [5] it was 1.31 to 1.5; with T-cell [6] it was 0.801 to 1.
In the case of `Cn1cnnc1CC1(c2cccc(NC(=O)c3cc(CN4CC[C@H](O)C4)nc(C4CC4)n3)c2)COC1` [Compound 505, 2-cyclopropyl-6-{[(3S)-3-hydroxypyrrolidin-1-yl]methyl}-N-(3-{3-[(4-methyl-1,2,4-triazol-3-yl)methyl]oxetan-3-yl}phenyl)pyrimidine-4-carboxamide], the IC50 at Cbl-b [1] is ≤ 100 nM; at Cbl-b [4] it was < 100 nM. The results for the fold induction at 0.3 µM in the assay with T-cell [2] and in the assay on T-cell [5] were 1.01 to 2.5 and 1.01 to 1.3, respectively. The fold induction at 1 µM is 2.51 to 5 in the assay with T-cell [2], 0.051 to 0.1 in the assay with T-cell [3], 1.01 to 1.3 with T-cell [5] and 0.601 to 0.8 with T-cell [6].
With `Cc1conc1CC1(c2cccc(NC(=O)c3cc(CN4CC[C@H](O)C4)nc(C4CC4)n3)c2)COC1` [Compound 507, 2-cyclopropyl-6-{[(3S)-3-hydroxypyrrolidin-1-yl]methyl}-N-(3-{3-[(4-methyl-1,2-oxazol-3-yl)methyl]oxetan-3-yl}phenyl)pyrimidine-4-carboxamide], the IC50 on Cbl-b [1] was ≤ 100 nM; at Cbl-b [4], < 100 nM. The fold induction at 0.3 µM with T-cell [2] is > 7.5; in the assay with T-cell [5], 1.31 to 1.5. The fold induction at 1 µM in the assay with T-cell [2] is > 7.5; in the assay on T-cell [3], > 0.201; with T-cell [5], 1.31 to 1.5; in the assay on T-cell [6], > 1.
As to `Cc1conc1CC1(c2cccc(NC(=O)c3cc(CN4CCC5(CC5)C4)nc(C4CC4)n3)c2)COC1` [Compound 508, 6-{5-azaspiro[2.4]heptan-5-ylmethyl}-2-cyclopropyl-N-(3-{3-[(4-methyl-1,2-oxazol-3-yl)methyl]oxetan-3-yl}phenyl)pyrimidine-4-carboxamide], the figures for the IC50 on Cbl-b [1] and at Cbl-b [4] were ≤ 100 nM and < 100 nM, respectively. Also, the fold induction at 0.3 µM was > 7.5 in the assay with T-cell [2] and 1.31 to 1.5 with T-cell [5]. Also, the fold induction at 1 µM in the assay on T-cell [2] is > 7.5; with T-cell [3], > 0.201; in the assay with T-cell [5] it was 1.31 to 1.5; in the assay on T-cell [6], > 1.
